The target in data set [1] is T1, CDK19 (Homo sapiens, UniProt Q9BWU1). The data set can be described thus: Cell-based QPCR assay of CDK8/19-dependent gene expression, HEK293 CDK8 single-knockout (8KO) cells. The arrangement: CDK8 single-knockout (8KO); endogenous in cells; host or cells: HEK293 CDK8 knockout (8KO). Particulars: HEK293 8KO, 1 h pre-treatment, then 10 ng/mL TNFα 2 h.
Target sequence in this assay (Q9BWU1 whole entry): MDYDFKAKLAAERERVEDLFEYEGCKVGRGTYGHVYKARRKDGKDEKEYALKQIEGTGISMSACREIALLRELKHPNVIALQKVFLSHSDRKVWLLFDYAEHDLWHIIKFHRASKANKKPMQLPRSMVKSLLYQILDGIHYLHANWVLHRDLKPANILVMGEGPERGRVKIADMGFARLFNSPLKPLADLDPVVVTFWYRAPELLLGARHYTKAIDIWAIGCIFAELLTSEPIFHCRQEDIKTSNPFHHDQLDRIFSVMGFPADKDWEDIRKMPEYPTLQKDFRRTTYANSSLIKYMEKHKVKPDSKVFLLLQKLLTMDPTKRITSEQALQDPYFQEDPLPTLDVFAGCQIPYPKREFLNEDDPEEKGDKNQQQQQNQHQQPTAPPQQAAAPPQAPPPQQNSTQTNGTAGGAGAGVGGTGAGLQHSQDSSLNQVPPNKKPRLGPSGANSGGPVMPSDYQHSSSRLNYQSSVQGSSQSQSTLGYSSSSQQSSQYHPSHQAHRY
Target sequence in this assay (P24863 whole entry partner): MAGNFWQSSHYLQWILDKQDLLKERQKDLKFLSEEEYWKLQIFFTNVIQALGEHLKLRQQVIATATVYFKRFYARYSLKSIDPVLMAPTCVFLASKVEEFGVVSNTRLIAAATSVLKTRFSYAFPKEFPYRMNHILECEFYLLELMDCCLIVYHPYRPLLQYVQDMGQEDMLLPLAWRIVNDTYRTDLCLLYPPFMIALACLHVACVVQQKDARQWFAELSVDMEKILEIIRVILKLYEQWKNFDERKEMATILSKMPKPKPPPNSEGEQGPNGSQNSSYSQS
Description: CDK8/CDK19 single knockout and double knockout derivatives of human embryonic kidney (HEK) 293 cells (ATCC CRL-1573) were generated as previously described [18]. All cells were cultured in DMEM (high-glucose) media supplemented with 10% fetal bovine serum (FBS) and Penicillin-Streptomycin-Glutamine (1×) at 37 °C with 5% CO2 and routinely confirmed to be free of mycoplasma.
(§3) Total RNA was extracted using RNAeasy Mini Kit (Qiagen, Germantown, MD, USA) and 1 µg of total RNA was used to generate cDNA using iScript cDNA synthesis kit (Bio-Rad Laboratories, Hercules, CA, USA). Gene expression was quantified using iTaq Universal SYBR green super mix using CFX384 Real-Time System (Bio-Rad).
The IC50 values for different inhibitors in inhibiting CDK8/19-dependent gene expression were calculated using a three-parameter least square (ordinary) fitting method with GraphPad Prism 7.0 (GraphPad Software, San Diego, CA, USA). The Kruskal–Wallis non-parametric ANOVA was used to compare gene expression levels under no-inhibitor conditions between wild-type cells and knockout derivatives (8KO, 19KO and dKO) with GraphPad Prism 7.0.
(§4) Cells were pre-treated with different concentrations of CDK8/19 inhibitors for 1 h and then 10 ng/mL TNFα, an inducer of transcription factor NFκB, which is potentiated by CDK8/19 [5], was added for 2 h before RNA extraction. QPCR was carried out to quantify CDK8/19-regulated expression of NFκB-inducible genes CXCL1 and CXCL8 and the basal expression of MYC.
A further data set concerns the target CDK8 (Homo sapiens, UniProt P49336). Briefly: Cell-based QPCR assay of CDK8/19-dependent gene expression, HEK293 CDK19 single-knockout (19KO) cells. Also noted: CDK19 single-knockout (19KO); endogenous in cells; host or cells: HEK293 CDK19 knockout (19KO). Particulars: HEK293 19KO, 1 h pre-treatment, then 10 ng/mL TNFα 2 h.
For data set [2], the system named is CDK8/19. The data set can be described thus: Cell-based QPCR assay of CDK8/19-dependent gene expression, HEK293 parental (WT) cells. Also noted: species or system human.
Description: All cells were cultured in DMEM (high-glucose) media supplemented with 10% fetal bovine serum (FBS) and Penicillin-Streptomycin-Glutamine (1×) at 37 °C with 5% CO2 and routinely confirmed to be free of mycoplasma.
as §3
The IC50 values for different inhibitors in inhibiting CDK8/19-dependent gene expression were calculated using a three-parameter least square (ordinary) fitting method with GraphPad Prism 7.0 (GraphPad Software, San Diego, CA, USA).
as §4
Details of data set [3]: method as in PMID 26796641. Particulars: mice, 30 mg/kg/d; cited from earlier work.
The next data set deals with rats. Conditions: cited from earlier work.
Data set [4] concerns non-dechorionated embryos of zebrafish TU strain. Briefly: Zebrafish toxicity assay, non-dechorionated embryos (TU strain). In kind it is in vivo. Conditions: 2 μM; TU strain. Here is the method:
The toxicity studies in non-dechorionated embryos of zebrafish TU strain were approved by the Institutional Animal Care and Use Committee of the University of South Carolina. The studies were conducted in sterile 24-well plates with one 24 hpf embryo in each well in a 1 mL volume of egg water. For each plate, 6 wells were treated with vehicle control and the other 18 wells (i.e., biological replicates) were treated with different CDK8/19 inhibitors at different concentrations. […] All the data from the plates with at least five healthy vehicle-treated embryos on day 5 were compiled together for final data analysis.

In data set [5] the target is T2, PIKFYVE (Homo sapiens, UniProt Q9Y2I7). Briefly: Phase-contrast microscopy for intracellular large vesicular structures (PIKFYVE inhibition). Also noted: endogenous in cells; host or cells: HEK293-WT and HEK293-dKO. In kind it is cell-based. Conditions: 3 h; both WT and dKO 293 cells. Here is the method: To evaluate PIKFYVE kinase inhibition, HEK293-WT and HEK293-dKO cells were treated with CDK8/19 inhibitors at different drug concentrations for 3 h. Phase-contrast microscopy was then used to detect the formation of intracellular large vesicular structures, associated with PIKFYVE inhibition.
T2 sequence (Q9Y2I7 whole entry): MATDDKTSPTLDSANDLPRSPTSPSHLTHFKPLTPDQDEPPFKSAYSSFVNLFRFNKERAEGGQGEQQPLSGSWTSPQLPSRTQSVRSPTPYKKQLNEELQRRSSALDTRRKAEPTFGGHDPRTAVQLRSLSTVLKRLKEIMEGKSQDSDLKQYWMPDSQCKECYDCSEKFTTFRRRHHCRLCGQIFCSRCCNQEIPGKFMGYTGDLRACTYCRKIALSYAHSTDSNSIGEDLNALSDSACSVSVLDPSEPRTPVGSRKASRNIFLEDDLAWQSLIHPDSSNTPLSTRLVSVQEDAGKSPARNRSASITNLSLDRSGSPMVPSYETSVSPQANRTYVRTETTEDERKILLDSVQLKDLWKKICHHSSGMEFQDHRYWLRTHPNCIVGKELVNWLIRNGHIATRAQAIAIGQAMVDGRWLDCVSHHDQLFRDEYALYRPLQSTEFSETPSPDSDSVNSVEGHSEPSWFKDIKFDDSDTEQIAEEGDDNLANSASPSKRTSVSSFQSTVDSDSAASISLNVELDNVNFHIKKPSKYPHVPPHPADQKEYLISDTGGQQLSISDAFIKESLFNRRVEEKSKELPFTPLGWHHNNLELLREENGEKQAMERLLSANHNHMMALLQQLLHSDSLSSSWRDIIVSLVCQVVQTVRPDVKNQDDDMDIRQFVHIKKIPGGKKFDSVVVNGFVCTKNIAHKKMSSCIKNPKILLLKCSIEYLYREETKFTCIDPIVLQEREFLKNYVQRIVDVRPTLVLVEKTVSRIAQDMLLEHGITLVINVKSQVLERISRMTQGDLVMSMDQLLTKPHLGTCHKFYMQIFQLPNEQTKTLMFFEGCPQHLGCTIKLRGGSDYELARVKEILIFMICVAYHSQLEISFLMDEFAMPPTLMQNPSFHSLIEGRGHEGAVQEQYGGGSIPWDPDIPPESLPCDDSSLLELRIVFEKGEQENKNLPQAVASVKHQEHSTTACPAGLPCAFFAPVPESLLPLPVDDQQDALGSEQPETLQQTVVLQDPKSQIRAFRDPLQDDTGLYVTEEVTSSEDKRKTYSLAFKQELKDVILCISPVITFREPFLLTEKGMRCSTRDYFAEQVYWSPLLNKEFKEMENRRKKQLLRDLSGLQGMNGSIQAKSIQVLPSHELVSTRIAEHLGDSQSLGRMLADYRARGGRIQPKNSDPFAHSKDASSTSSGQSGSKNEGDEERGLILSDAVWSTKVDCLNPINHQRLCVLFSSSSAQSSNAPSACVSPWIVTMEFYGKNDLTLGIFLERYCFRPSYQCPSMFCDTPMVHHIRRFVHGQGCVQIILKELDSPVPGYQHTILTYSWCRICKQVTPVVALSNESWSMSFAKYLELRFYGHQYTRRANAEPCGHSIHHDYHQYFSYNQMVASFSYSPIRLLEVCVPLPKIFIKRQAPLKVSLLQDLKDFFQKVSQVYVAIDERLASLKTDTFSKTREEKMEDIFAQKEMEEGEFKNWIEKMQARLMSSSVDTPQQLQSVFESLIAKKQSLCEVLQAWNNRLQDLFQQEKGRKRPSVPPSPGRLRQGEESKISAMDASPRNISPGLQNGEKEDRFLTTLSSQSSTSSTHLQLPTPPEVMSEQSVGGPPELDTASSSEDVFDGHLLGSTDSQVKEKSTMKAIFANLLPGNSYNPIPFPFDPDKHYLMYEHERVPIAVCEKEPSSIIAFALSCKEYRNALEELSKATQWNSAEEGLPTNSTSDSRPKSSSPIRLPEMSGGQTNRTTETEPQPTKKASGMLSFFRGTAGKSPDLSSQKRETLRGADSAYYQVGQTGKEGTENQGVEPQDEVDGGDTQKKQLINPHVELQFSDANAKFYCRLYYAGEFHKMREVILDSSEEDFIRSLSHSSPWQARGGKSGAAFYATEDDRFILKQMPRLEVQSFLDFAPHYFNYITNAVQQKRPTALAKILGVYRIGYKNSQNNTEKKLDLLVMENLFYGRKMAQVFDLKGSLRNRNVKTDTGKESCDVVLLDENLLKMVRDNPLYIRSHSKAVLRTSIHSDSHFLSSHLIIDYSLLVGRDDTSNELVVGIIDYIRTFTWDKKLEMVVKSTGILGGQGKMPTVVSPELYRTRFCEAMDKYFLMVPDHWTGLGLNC

The next data set deals with T3, JNK1 (MAPK8) (Homo sapiens, UniProt P45983).
T3 construct: purchased DiscoverX
T3 sequence (P45983 whole entry): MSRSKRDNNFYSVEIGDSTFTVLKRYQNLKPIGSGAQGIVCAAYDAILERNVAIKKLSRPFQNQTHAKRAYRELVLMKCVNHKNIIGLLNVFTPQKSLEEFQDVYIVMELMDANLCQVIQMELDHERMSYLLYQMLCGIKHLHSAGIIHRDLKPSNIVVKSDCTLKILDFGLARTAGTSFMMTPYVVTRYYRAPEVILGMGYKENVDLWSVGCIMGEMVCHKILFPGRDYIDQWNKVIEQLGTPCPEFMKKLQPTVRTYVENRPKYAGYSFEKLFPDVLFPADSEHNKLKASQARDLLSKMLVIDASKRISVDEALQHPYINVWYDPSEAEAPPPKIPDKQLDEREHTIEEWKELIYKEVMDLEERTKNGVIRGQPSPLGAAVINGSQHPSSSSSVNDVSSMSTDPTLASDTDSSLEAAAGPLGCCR
Briefly: KdELECT Kd determination, JNK1. Conditions: 11-point 3-fold serial dilution, duplicate; read-out: Kd for the inhibition of nucleotide binding, JNK1 (MAPK8). As to the method:
(§1) The screening platform employs an active site-directed competition binding assay to quantitatively measure interactions between test compounds and targeting kinases. […] To determine dissociation constants (Kds) of compounds on different targets, an 11-point 3-fold serial dilution of each test compound was tested in independent duplicate assays.
(§2) This assay has been previously used with many CDK8/19 inhibitors, including cortistatin A and its equipotent analog dCA [20, 21]; 15w.

On the set-up of data set [6]: method as in PMID 27935476. Conditions: colon cancer and leukemia mouse xenograft models; cited from earlier work.
The target in data set [7] is T2, PIKFYVE. The data set can be described thus: KdELECT Kd determination, PIKFYVE. Also noted: purchased DiscoverX. Particulars: 11-point 3-fold serial dilution, duplicate; read-out: Kd for the inhibition of nucleotide binding, PIKFYVE. As to the method:
as §1, §2

For data set [8], the target named is T1, CDK19. The data set can be described thus: KdELECT Kd determination, CDK19. The data set is classed as binding. The arrangement: purchased DiscoverX. Here is the method:
To determine dissociation constants (Kds) of compounds on different targets, an 11-point 3-fold serial dilution of each test compound was tested in independent duplicate assays.
Target sequence in this assay (Q9BWU1 whole entry): as the sequence (Q9BWU1 whole entry) above

The target of the next data set is T4, STK16 (Homo sapiens, UniProt O75716).
T4 construct: purchased DiscoverX
T4 sequence (O75716 whole entry): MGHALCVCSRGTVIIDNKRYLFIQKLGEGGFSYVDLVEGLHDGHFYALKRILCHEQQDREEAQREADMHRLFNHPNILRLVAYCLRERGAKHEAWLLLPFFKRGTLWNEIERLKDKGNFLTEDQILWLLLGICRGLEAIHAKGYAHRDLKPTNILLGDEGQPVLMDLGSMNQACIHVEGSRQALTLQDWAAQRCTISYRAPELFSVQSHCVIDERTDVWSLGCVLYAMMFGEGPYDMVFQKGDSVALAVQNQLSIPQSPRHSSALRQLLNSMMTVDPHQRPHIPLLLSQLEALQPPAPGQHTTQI
Briefly: KdELECT Kd determination, STK16. Conditions: 11-point 3-fold serial dilution, duplicate; read-out: Kd for the inhibition of nucleotide binding, STK16. As to the method: as §1, §2

A further data set concerns dogs. Conditions: cited from earlier work.
The test system of data set [9] is STAT1 S727 phosphorylation. Briefly: Western blot of STAT1 S727 phosphorylation in 293-dKO cells. In kind it is cell-based, human. Conditions: for CDK8/19-independent STAT1 S727 phosphorylation in dKO 293 cells, effect of cytotoxic drugs: 3 h, 50 μM etoposide, 50 nM Taxol; for Basal STAT1 S727 phosphorylation in dKO cells, effect of cytokines: 20 ng/mL EGF, 40 ng/mL TNFα, 1 h after 24 h serum starvation. Here is the method: Cells were cultured in 60-mm dishes and treated under different conditions before being lysed in RIPA lysis buffer with protease/phosphatase inhibitor cocktail. The protein concentration of extracts was determined using the DC protein assay (Bio-Rad Laboratories). Protein samples (50 μg) were resolved on 4–12% Express-Plus PAGE gels in Tris-MOPS (SDS) running buffer (GenScript, Piscataway, NJ, USA), transferred to PVDF membranes and incubated at 4 °C overnight with primary antibodies STAT1 (sc-592, Santa Cruz Biotechnology, Dallas, TX, USA) and pSTAT1-Ser727 (#8826, Cell Signaling Technology, Danvers, MA, USA) followed by anti-rabbit (NA934, GE Healthcare, Chicago, IL, USA) secondary antibodies. Bands were visualized with Western Lighting Plus ECL detection reagent (Perkin Elmer, Waltham, MA, USA) using ChemiDoc Touch™ (Bio-Rad). Images were analyzed using ImageLab (Bio-Rad) and ImageJ (version 1.52p) software for protein signal quantification.
In general terms: Immunoblotting shows a protein as a band on a membrane.

The subject of data set [10] is CDK8/19. Briefly: Wash-off study: stability of inhibition of CDK8/19-dependent gene expression in 293 cells. Conditions: 30 nM, 3 h, then drug-free media. In kind it is cell-based, human. An excerpt:
We then asked if such toxicity could be associated with the stability of CDK8/19 inhibition. […] Then the drug-containing media were removed, cells were washed twice with PBS and cultured in fresh drug-free media for different periods of time before being lysed for RNA extraction and QPCR analysis of mRNA expression of MYC, JUN and ADAMTS1.

Setting [11] is: IC50, CXCL1 mRNA expression, 8KO.
Where [12] appears, read: IC50, CXCL8 mRNA expression, 8KO.
Setting [13] is: read-out: IC50, CXCL1 mRNA expression, WT; HEK293 WT; 1 h pre-treatment, then 10 ng/mL TNFα 2 h; QPCR.
Setting [14] is: read-out: IC50, CXCL8 mRNA expression, WT; HEK293 WT; 1 h pre-treatment, then 10 ng/mL TNFα 2 h; QPCR.
The mark [15] stands for this setting: read-out: IC50, MYC mRNA expression, WT; HEK293 WT; 1 h pre-treatment, then 10 ng/mL TNFα 2 h; QPCR.

Where two headings read alike, the source gives them in different places.

For orientation: IC50 means the concentration at which inhibition is half-maximal. For orientation: Kd means the constant that tells how readily two partners part at equilibrium.

Chain of CDK8 (P49336 whole entry): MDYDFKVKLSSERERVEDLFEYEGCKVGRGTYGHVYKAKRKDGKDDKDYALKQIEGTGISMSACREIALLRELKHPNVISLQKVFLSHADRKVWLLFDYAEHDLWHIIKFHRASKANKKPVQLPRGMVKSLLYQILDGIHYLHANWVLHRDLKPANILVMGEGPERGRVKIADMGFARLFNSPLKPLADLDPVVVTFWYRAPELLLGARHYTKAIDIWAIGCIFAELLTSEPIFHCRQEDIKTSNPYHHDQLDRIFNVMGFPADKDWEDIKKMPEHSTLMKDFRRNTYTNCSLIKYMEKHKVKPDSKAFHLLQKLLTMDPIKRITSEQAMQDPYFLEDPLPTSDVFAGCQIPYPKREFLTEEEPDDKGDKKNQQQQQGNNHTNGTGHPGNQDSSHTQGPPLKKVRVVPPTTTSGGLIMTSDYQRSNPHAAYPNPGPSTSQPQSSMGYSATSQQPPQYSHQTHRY
Chain of CDK8 (P24863 whole entry partner): as the sequence (P24863 whole entry partner) above

On to `CN(C)C(=O)Cc1ccc(N2CCCN(c3ccnc4sc(C(N)=O)c(N)c34)CC2)cc1` [15w], for which the IC50 at CDK19 [1] (read-out: IC50, CXCL1 mRNA expression, 8KO) was 5.4 nM; at CDK19 [1] (read-out: IC50, CXCL8 mRNA expression, 8KO), 5.4 nM; on CDK19 [1] (read-out: IC50, MYC mRNA expression, 8KO), 6.2 nM; at CDK8 (read-out: IC50, CXCL1 mRNA expression, 19KO), 5.2 nM; at CDK8 (read-out: IC50, CXCL8 mRNA expression, 19KO), 4.2 nM; on CDK8 (read-out: IC50, MYC mRNA expression, 19KO), 2.5 nM. Also, the IC50 worked out at 6.1 nM in the data set with CDK8/19 [2] (HEK293 WT; 1 h pre-treatment, then 10 ng/mL TNFα 2 h; QPCR; read-out: IC50, CXCL1 mRNA expression, WT); 5.5 nM with CDK8/19 [2] (HEK293 WT; 1 h pre-treatment, then 10 ng/mL TNFα 2 h; QPCR; read-out: IC50, CXCL8 mRNA expression, WT); 4 nM in the data set on CDK8/19 [2] (HEK293 WT; 1 h pre-treatment, then 10 ng/mL TNFα 2 h; QPCR; read-out: IC50, MYC mRNA expression, WT).
For `Cn1ncc2cc(-c3cnc(N)c(Cl)c3N3CCC4(CCNC4=O)CC3)ccc21` [Cmpd3], the “Total plasma concentration after 1 h” value in data set [3] is 14.1 µM. Moreover, the “Total plasma concentration after 2 h” value in data set [3] is 6.9 µM. Besides, in data set [3], the “Total plasma concentration after 6 h” value is 0.8 µM. The Toxicity in rats result in the data set on rats is “multiple and striking toxicities, including lethality”. Besides, the “Toxicity in zebrafish assays at higher concentrations” value in data set [4] is recorded as “moderate but significant toxicity”. The half-maximal inhibitory concentration (IC50) on CDK19 [1] (setting [11]) amounted to 3.1 nM; on CDK19 [1] (setting [12]), 6.1 nM; on CDK19 [1] (IC50, MYC mRNA expression, 8KO), 0.9 nM; in the data set on CDK8/19 [2] (setting [13]), 3.2 nM; in the data set with CDK8/19 [2] (setting [14]) it was 3.3 nM; in the data set on CDK8/19 [2] (setting [15]), 4.1 nM. Besides, on PIKFYVE [5], the “Formation of large vesicular structures inside cells” value was “caused the formation of large vesicular structures”. For the same compound, the Kd at JNK1 (MAPK8) is 390 nM; on PIKFYVE [7], 100 nM; on CDK19 [8] it was 59 nM; on STK16, 420 nM. In data set [6], the “Weight loss in mice” value was “detectable weight loss”. In the data set on dogs, the Toxicity in dogs entry was “multiple and striking toxicities, including lethality”.
Turning to `CC(=O)O[C@H]1C(=O)[C@@]2(C)[C@H]([C@H](OC(=O)c3ccccc3)[C@]3(O)C[C@H](OC(=O)[C@H](O)[C@@H](NC(=O)c4ccccc4)c4ccccc4)C(C)=C1C3(C)C)[C@]1(OC(C)=O)CO[C@@H]1C[C@@H]2O` [Taxol], the “CDK8/19-independent STAT1 S727 phosphorylation in dKO 293 cells, effect of cytotoxic drugs” value in data set [9] is on record as “increased”.
As for `CN(C)C1CC23CCC4(O2)C(=CCC2(C)C(c5ccc6ccncc6c5)=CCC24)C=C3C(O)C1O` (stereo not drawn) [dCA, 16-didehydro-cortistatin A], the “Toxicity in zebrafish assays at higher concentrations” value in [4] was “moderate but significant toxicity”. For the same compound, the IC50 at CDK19 [1] (setting [11]) came to 1.1 nM; at CDK19 [1] (setting [12]), 0.8 nM; at CDK19 [1] (IC50, MYC mRNA expression, 8KO), 0.6 nM; on CDK8 (IC50, CXCL1 mRNA expression, 19KO) it was 1.4 nM; on CDK8 (IC50, CXCL8 mRNA expression, 19KO) it was 1 nM; at CDK8 (IC50, MYC mRNA expression, 19KO), 0.5 nM. The IC50 was found to be 1.3 nM with CDK8/19 [2] (setting [13]), 1.4 nM with CDK8/19 [2] (setting [14]) and 1.5 nM with CDK8/19 [2] (setting [15]). Further, the “Stability of CDK8/19 inhibition after wash-off (MYC, JUN, ADAMTS1 mRNA)” value in the data set on CDK8/19 [10] was “by far the most stable”.
`COc1cc([C@@H]2c3cc4c(cc3[C@@H](O[C@@H]3O[C@@H]5CO[C@@H](C)O[C@H]5[C@H](O)[C@H]3O)[C@H]3COC(=O)[C@H]23)OCO4)cc(OC)c1O` [etoposide]: the “CDK8/19-independent STAT1 S727 phosphorylation in dKO 293 cells, effect of cytotoxic drugs” value in [9] is “increased”.
In the case of “EGF: Recombinant human epidermal growth factor (NSDSECPLSHDGYCLHDGVCMYIEALDKYACNCVVGYIGERCQYRDLKWWELR; UniProt P01133 971-1023, looked up)”, the “Basal STAT1 S727 phosphorylation in dKO cells, effect of cytokines” value in data set [9] is “increased”.
The same measure, in the same setting: in the case of TNFα it was “increased”.

The values above are taken from PMC6912361, “Systemic Toxicity Reported for CDK8/19 Inhibitors CCT251921 and MSC2530818 Is Not Due to Target Inhibition” (Cells, 2019).
